Measurements from article PMC8468663, “Co-Spray Dried Nafamostat Mesylate with Lecithin and Mannitol as Respirable Microparticles for Targeted Pulmonary Delivery: Pharmacokinetics and Lung Distribution in Rats” (Pharmaceutics, 2021).
Structures can show the parent of a compound that is named as a salt.

Tests used:
in vivo = assay: in vivo; set-up: species or system Sprague–Dawley rats; details: rat, 10 mg/kg; for half-life: T½
Method: The Chungbuk National University Institutional Animal Care and Use Committee approved the experimental protocols and animal care methods used in this study. The first in vivo experiment was a pharmacokinetic study to determine the efficacy of NFM based on the route of administration and to determine the effect of lecithin as a stabilizer. After preparing a 0.5% mannitol solution (w/v), NFM was added at a concentration of 25 mg mL^−1 to prepare solution A. In addition, Tween 80 was added to solution A at 1% (w/v), plus lecithin, which was added at a concentration of 25 mg mL^−1, and stirred to evenly disperse it to produce solution B. Each experiment was carried out using a male SD rat (8 weeks old, 230–250 g) in three groups of 16 animals each. The SD rats were fed a commercial pellet diet and fresh water and housed at room temperature (23 ± 1 °C) with a relative humidity of 50 ± 10%, and a 12 h light and dark cycle. First, the intravenous (IV) group was administered a 100 μL dose of solution A (10 mg·kg^−^1) intravenously through the lateral tail vein. Second, a 100 μL dose of solution A (10 mg kg^−^1) was administered by intratracheal instillation (ITI) to the intratracheal instillation-1 (ITI-1) group. Finally, the ITI-2 group was administered a 100 μL dose of solution B (10 mg·kg^−^1). For the analysis of plasma concentration, blood was collected via the orbital vein 1, 5, 10, 30, and 60 min after administration to each group (n = 4). Blood was collected in a heparin tube and gently shaken. Plasma was immediately separated from the blood samples by centrifugation at 3000 rpm for 2 min. After administration to each group (n = 12), 4 rats were sacrificed at 10, 30, and 60 min. BALF samples were obtained by injecting and extracting 5 mL DW into the lungs of the rats. Lung tissues were placed in 10 mL DW and homogenized at 18,000 rpm for 3 min using a homogenizer. Acetonitrile (ACN) was added to plasma, BALF, and lung tissue samples in a ratio of 1:1 (v/v) to precipitate the proteins, and the sample solutions were centrifuged at 18,000 rpm for 5 min to obtain a supernatant. The supernatant was quantified by HPLC analysis. A second in vivo experiment was performed to determine the efficacy of NFM microparticles in a DPI formulation, focusing on the lung lumen and tissue. First, the solution group was administered a solution at a dose of 0.25 mg NFM per rat by ITI (1 mg·kg^−^1). Second, the SD-NM group was treated using a dry powder insufflator for the intratracheal administration of the SD-NM in the form of DPI at a dose of 0.25 mg of NFM per rat (1 mg·kg^−^1). Finally, the SD-NLM group was administered an SD-NLM at a dose of 0.25 mg of NFM per rat (1 mg kg^−^1) using a dry powder insufflator. BALF and lung tissue samples were prepared using the same procedure as that used for the in vivo study described above. The samples were quantified by HPLC analysis.

[1] = system: SARS-CoV-2 entry into host cells; set-up: method as in PMID 32312781; details: cited from earlier work
[2] = cited from earlier work
[3] = male, Sprague-Dawley, Amount of NFM in BALF
[4] = male, Sprague-Dawley, inhaled or intranasal

N=C(N)c1ccc2cc(OC(=O)c3ccc(N=C(N)N)cc3)ccc2c1 [NFM, Nafamostat mesylate]
Amount of NFM in BALF (in vivo; male, Sprague-Dawley, 10 min): 4.48 µg/mL
Amount of NFM in BALF (in vivo; male, Sprague-Dawley, 30 min): 1.69 µg/mL
concentration at 10 min (in vivo; [3]): 2900 ng/mL
concentration at 30 min (in vivo; [3]): 1690 ng/mL
Tmax (in vivo; male, Sprague-Dawley, Tmax): 5 min
Cmax (in vivo; [4]): 22900 ± 4640 ng/mL
Tmax (in vivo; [4]): 4.0 ± 1.00 min
T½ (in vivo; [4]): 28.6 ± 3.51 min
AUC(0-inf) (in vivo; [4]): 11200 ng·h/mL
Cmax (in vivo; male, Sprague-Dawley, inhaled or intranasal, Cmax): 25900 ± 4230 ng/mL
half-life (in vivo; [4]): 26.7 ± 2.6 min
AUC(inf) (in vivo; male, Sprague-Dawley, iv): 436.1 ± 31.59 µg·min/mL
AUC(0-inf) (in vivo; male, Sprague-Dawley, iv): 7270 ng·h/mL
concentration at 10 min (in vivo; male, Sprague-Dawley, iv, Amount of NFM in BALF): 960 ng/mL
Cmax (in vivo; male, Sprague-Dawley, iv, Cmax): 43700 ± 7980 ng/mL
half-life (in vivo; male, Sprague-Dawley, iv): 13.2 ± 0.52 min
Amount of NFM in BALF (in vivo): still had remaining NFM in the BALF
Amount of NFM in lung tissue (in vivo): some residual drug
Amount of NFM in BALF (in vivo; iv): There was no NFM in the BALF
Half-life of ITI-1 and ITI-2 groups relative to IV group (in vivo; iv): approximately twice
EC50, inhibition of SARS-CoV-2 entry into host cells [1]: low nanomolar range
Efficiency of inhibition of SARS-CoV-2 entry relative to camostat mesylate [1]: approximately 15 fold
Half-life in human blood [2]: approximately 3 min
